Data published in patent US11160767B2, “4,4′-trans-dihydroxystilbene for use in treating cancer” (The George Washington University, a Congressionally …, priority 2017, dated 2021).

Legend:
[1] = test system: HCT116; assay: In vitro cytotoxicity (SRB assay), HCT116; type: cell-based; conditions: Homo sapiens, HCT-116, 72 hours
Description: (§1) Cell lines and cell culture. HCT116, U205, PANC-1, MDA-231 cell lines were purchased from the American Type Culture Collection (Rockville, Md., US). Cells were cultured in the DMEM medium (Lonza, Basel, Switzerland) containing 10% fetal bovine serum (Gibco, Grand Island, N.Y., US), 100 Units/ml penicillin, 100 Units/mL streptomycin, […] L-glutamine (Gibco, Grand Island, N.Y., US) at 37° C. in a humidified atmosphere with 5% CO2.
(§2) In vitro cytotoxicity assays. […] SRB assay (Vichai and Kirtikara, 2006) was performed and the absorbance at 510 nm was read with a plate reader. The proliferation rate was calculated according to the Manufacturer's instruction. The IC50 value for each compound was determined from dose-effect relationship using the CompuSyn software (version 1.0.1; CompuSyn, Inc, Paramus, N.J.) (Chou, 2006). Cell proliferating doubling time was monitored over a period of 72 hours.

[2] = test system: MDA-231/GFP; assay: In vitro cytotoxicity (SRB assay), MDA-231/GFP; type: cell-based; conditions: Homo sapiens, MDA-MB-231, 72 hours
Description: as §1, §2

[3] = test system: PANC-1; assay: In vitro cytotoxicity (SRB assay), PANC-1; type: cell-based; conditions: Homo sapiens, 72 hours
Description: as §1, §2

[4] = test system: U2OS; assay: In vitro cytotoxicity (SRB assay), U2OS; type: cell-based; conditions: Homo sapiens, 72 hours
Description: as §1, §2

[5] = test system: HCT116 xenograft tumor; assay: HCT116 xenograft tumor model; type: in vivo, nude mice; conditions: Day 38; DHS 50 mg/kg i.p. 14 consecutive days; cisplatin 8 mg/kg i.p.
Description: Xenograft mouse models. […] In xenograft studies, HCT116 (3×10^6 cells) and IGROV3/CP2 (5×10^6 cells) suspended in 100 μl of phosphate buffered saline (PBS, pH 7.4) were injected subcutaneously into the lower flank of the mice. Testing compounds were dissolved in DMSO/Tween 80/saline (10:10:80; v/v/v) buffer and were used to treat animals through intraperitoneal (i.p.) injection. […] The body weight of animals was measured throughout the study. Tumor diameters were measured with digital calipers, and the tumor volume in mm^3 was calculated by the formula: Volume=(width)^2×length/2.
HCT116 cells (5×10^6) were injected subcutaneously in nude mice and grown to approximately 100 mm^3 in volume. […] To study the preclinical toxicity of DHS, samples of hearts, livers, spleens, lung, and kidneys were collected on Day 38 and sections were stained for histological examination.

[6] = test system: HCT116 cells, U2OS cells, MDA-231/GFP cells, and PANC-1 cells; assay: Cytotoxicity across the four cancer cell lines (SAR summary); type: cell-based; conditions: range over four cell lines
Description: In vitro cytotoxicity assays. Cells growing in the Log phase were treated with various compounds at different concentrations (generally 0.137 to 100 μM) for 72 hours at 37° C. SRB assay (Vichai and Kirtikara, 2006) was performed and the absorbance at 510 nm was read with a plate reader. The proliferation rate was calculated according to the Manufacturer's instruction. The IC50 value for each compound was determined from dose-effect relationship using the CompuSyn software (version 1.0.1; CompuSyn, Inc, Paramus, N.J.) (Chou, 2006). Cell proliferating doubling time was monitored over a period of 72 hours.
Based on identification of resveratrol as a lead compound in the drug screening assays, the anti-cancer activity of synthetic resveratrol analogs (FIG. 2) was next investigated and compared to resveratrol using HCT116 cells, U2OS cells, MDA-231/GFP cells, and PANC-1 cells.
The structure activity relationship (SAR) of the derivatives of resveratrol were considered.

[7] = molecular target: T1, RRM1 (Homo sapiens, UniProt P23921); assay: Thermal shift assay in HCT116 cells, RRM1; type: cell-based
T1 construct: endogenous in cells; host or cells: HCT116
Description: (§3) To investigate binding of DHS to RRM1 and RRM2, a thermal shift assay was performed in HCT116 cells treated with DMSO (vehicle), resveratrol, DHS, gemcitabine, or hydroxyurea (Hu). Gemcitabine is known to bind RRM1 (Plunkett et al., 1995 and Chen et al., 2011), and Hu has been reported to bind RRM2 (Thelander et al., 1985). […] DHS stabilized RRM2 protein in a dose responsive manner (5 to 20 μM DHS; FIG. 11A). To rule out nonspecific effects of DHS on RRM2, an in vitro thermal shift assay was conducted. Purified RRM1 and RRM2 were mixed and then incubated with DHS or Hu for 4 hours before performing the assay.

[8] = test system: HCT116 cells; assay: dNTP amount in treated cells; type: cell-based, human
Source text: The effect of DHS on dNTP synthesis was investigated by measuring the amount of dNTPs in DHS-treated HCT116 cells.

[9] = test system: HCT116 cells; assay: Cell-cycle assay; type: cell-based, human; conditions: 10 μM
Description: A cell-cycle assay was conducted to study whether DHS would affect cell-cycle progression.

[10] = test system: And-1; assay: High-throughput screening, HEK-293T-And-1-Luc cells; type: cell-based; conditions: 48 hours
Description: High-throughput drug screening was performed using a HEK-293T-And-1-Luc cell line expressing Luciferase fused to And-1 (FIG. 1A). The level of cellular Luciferase activity was reflective of the level of And-1 protein. […] In the drug screening assays, cells were treated with testing drugs for 48 hours.

[11] = test system: HCT116 cells; assay: DNA fiber assay; type: cell-based, human; conditions: added 2 hours prior to labeling
Description: Thus, the effect of DHS on DNA replication and cell cycle progression was investigated. Replication fork speeds were examined by DNA fiber assay (FIG. 7A). Briefly, DHS, hydroxyurea (Hu), or Aphidicolin (Aph) was added to HCT116 cells 2 hours prior to labeling of DNA with iododeoxyuridine (IdU) and/or chlorodeoxyuridine (CldU).

[12] = molecular target: T2, RRM2 (Homo sapiens, UniProt P31350); assay: Thermal shift assay in HCT116 cells, RRM2; type: cell-based
T2 construct: endogenous in cells; host or cells: HCT116
T2 sequence (P31350 1-389): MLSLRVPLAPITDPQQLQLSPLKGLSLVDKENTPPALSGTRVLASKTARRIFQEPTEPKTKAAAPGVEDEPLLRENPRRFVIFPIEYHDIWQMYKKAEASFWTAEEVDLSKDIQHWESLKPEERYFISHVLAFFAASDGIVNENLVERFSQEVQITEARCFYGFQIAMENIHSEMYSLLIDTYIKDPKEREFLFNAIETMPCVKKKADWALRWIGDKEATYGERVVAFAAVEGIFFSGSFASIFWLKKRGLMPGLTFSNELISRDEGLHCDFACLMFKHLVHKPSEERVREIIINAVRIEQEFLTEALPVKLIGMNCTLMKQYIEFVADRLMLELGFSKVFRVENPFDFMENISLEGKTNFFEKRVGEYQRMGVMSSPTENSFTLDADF
Description: as §3

T1 sequence (P23921 whole entry): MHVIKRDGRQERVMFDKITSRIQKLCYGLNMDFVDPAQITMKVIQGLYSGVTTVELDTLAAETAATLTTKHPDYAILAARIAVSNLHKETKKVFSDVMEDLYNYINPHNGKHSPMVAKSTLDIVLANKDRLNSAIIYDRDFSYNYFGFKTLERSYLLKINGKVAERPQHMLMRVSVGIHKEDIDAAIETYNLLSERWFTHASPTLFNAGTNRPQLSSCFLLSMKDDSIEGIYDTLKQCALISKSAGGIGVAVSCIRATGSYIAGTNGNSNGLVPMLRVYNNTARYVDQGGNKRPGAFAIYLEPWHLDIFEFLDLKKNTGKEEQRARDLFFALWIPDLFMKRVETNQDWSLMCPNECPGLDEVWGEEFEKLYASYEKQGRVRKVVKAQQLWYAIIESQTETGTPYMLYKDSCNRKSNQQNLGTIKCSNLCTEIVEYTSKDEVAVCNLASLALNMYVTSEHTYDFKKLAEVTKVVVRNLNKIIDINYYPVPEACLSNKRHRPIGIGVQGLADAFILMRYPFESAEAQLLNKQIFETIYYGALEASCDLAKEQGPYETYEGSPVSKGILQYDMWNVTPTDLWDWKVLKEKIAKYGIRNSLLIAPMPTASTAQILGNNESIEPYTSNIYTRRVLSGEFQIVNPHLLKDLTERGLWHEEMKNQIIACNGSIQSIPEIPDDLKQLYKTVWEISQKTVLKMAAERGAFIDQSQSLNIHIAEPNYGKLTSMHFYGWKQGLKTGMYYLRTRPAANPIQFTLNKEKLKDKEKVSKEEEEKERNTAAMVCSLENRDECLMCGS

Compound | IC50 [1] [µM] | IC50 [2] [µM] | IC50 [3] [µM] | IC50 [4] [µM] | Reduction in tumor volume as compared with the vehicle control group [5] [%] | IC50 [6] [µM] | RRM1 levels in thermal shift assay (binding) [7] | dNTP synthesis [8] | Effect on cell-cycle progression [9] | And-1 protein level (luciferase activity) [10] | DNA replication stalling [11] | RRM2 levels in thermal shift assay (binding) [12]
Oc1ccc(/C=C/C=C/C=C/c2ccc(O)cc2)cc1 [#2, 4,4′-((1E,3E,5E)-hexa-1,3,5-triene-1,6-dyl)diphenol] | 11.7 ± 6.46 | 57.9 ± 15.4 | 123 ± 93.4 | 0.37 ± 0.28 |  |  |  |  |  |  |  | 
N.N.[Cl][Pt][Cl] [Cisplatin, reference compound] |  |  |  |  | ~50 |  |  |  |  |  |  | 
Oc1ccc(/C=C/c2ccccc2)cc1O [#4, (E)-4-styrylbenzene-1,2-diol] | 50.2 ± 9.72 | 13.7 ± 2.98 | 57.1 ± 44.7 | 33.6 ± 28 |  | 13.7 to 57.1 |  |  |  |  |  | 
Oc1ccc(/C=C/c2ccccc2)cc1 [#3, (E)-4-styrylphenol] | 32.2 ± 5.88 | 45.1 ± 13.9 | 109 ± 63.7 | 23.6 ± 3.83 |  | 23.6 to 109 |  |  |  |  |  | 
Oc1ccc(/C=C/C=C/c2ccc(O)cc2)cc1 [#1, 4,4′-((1E,3E)-buta-1,3-diene-1,4-diyl)diphenol] | 6.48 ± 3.98 | 70.7 ± 16.7 | 308 ± 86.3 | 1.1 ± 1.05 |  |  |  |  |  |  |  | 
Nc1ccn([C@@H]2O[C@H](CO)[C@@H](O)C2(F)F)c(=O)n1 [Gemcitabine, reference compound] | 0.046 ± 0.041 | 0.03 ± 0.04 | 7.43 ± 5.24 | 0.51 ± 0.17 |  |  | robust levels of RRM1 |  |  |  |  | 
Oc1ccc(/C=C/c2cc(O)cc(O)c2)cc1 [Resveratrol, 3,5,4′-trihydroxy-trans-stilbene, reference compound] | 24.5 ± 3.32 | 42.4 ± 4.9 | 82 ± 24.4 | 30.2 ± 4.22 |  | 24.5 to 82 |  | did not | did not change the cell-cycle population | causing down-regulation of And-1 protein |  | 
C[C@@]1(CO)[C@H](O)CC[C@@]2(C)[C@H]1CC[C@H]1C[C@@H]3C[C@@]12CC[C@]3(O)CO [Aph, Aphidicolin, reference compound] |  |  |  |  |  |  |  |  |  |  | caused DNA replication stalling | 
Oc1ccc(/C=C/C=C/c2ccccc2)cc1O [#5, 4-((1E,3E)-4-phenylbuta-1,3-dien-1-yl)benzene-1,2-diol] | 9.5 ± 3.64 | 5.47 ± 4.02 | 18.4 ± 8.87 | 4.66 ± 2.67 |  |  |  |  |  |  |  | 
NC(=O)NO [Hydroxyurea, reference compound] | 306 ± 61.1 | 704 | 2400 ± 485 | 262 ± 181 |  |  |  | did not |  |  | caused DNA replication stalling | robust levels of RRM2
